Measured values reported in patent US5637570A, “Disubstituted and trisubstituted derivatives of 2,3:4,6-di-O-isopropylidene-α-L-xylo-2-hexulofuranosonic acid having anti-cancer, anti-inflammatory and anti-proliferative activity” (Chemora Pharmochem, priority 1995, dated 1997).
Where two headings read alike, the source gives them in different places.

What was measured:
[1] = system: UACC-62 Melanoma Xenografts; assay: Early Stage Subcutaneous Tumor Model UACC-62 Melanoma Xenografts; settings: for Drug Deaths: of 6 mice; for Opt. % T/C: >40 considered inactive
Experimental: (§3) In this in vivo model Murine or human tumor fragments (30 mg) are implanted subcutaneously into the axillary region of pathogen-free immunocompetent or immunodefficient mice, respectively, on experimental day 0. Test agent treatment is initiated either on the day which is historically associated with the start of tumor growth, or when the tumor is palpable. Tumor size and body weights are obtained approximately two times per week. Tumor weights are calculated from caliper measurements of tumor dimensions in mm using the formula for a prolate ellipsoid:
(§4) (L×W^2)/2; where L is the longer of the 2 measurements
(§5) Generally, tumor size is monitored until an upper weight limit of 500 mg is attained.

P388 Murine Leukemia = P388 Murine Leukemia in vivo; settings: for antitumor activity / toxicity: Ic 60, 40 and 27 mg/kg/dose, Im 120, 80 and 54 mg/kg/dose; for maximally tolerated dose: mouse, in vivo
Experimental: Two of the compounds of the present invention (Ic and Im) were also tested against P388 Murine Leukemia.

[2] = system: SK-MEL-28 Melanoma Xenografts; assay: Early Stage SK-MEL-28 Melanoma Xenografts; settings: for Drug Deaths: of 6 mice; for Opt. % T/C: >40 considered inactive
Experimental: as §3, §4, §5

[3] = system: human tumor cell lines (approximately 60); assay: NCI in vitro human tumor cell line screen (SRB), mean graph midpoints over all cell lines; type: cell-based; settings: for CC50 / GI50 / IC (TGI): Homo sapiens, average of all cell lines, 48 h; for CC50: 50% cell death (-50% growth), read-out: log10 LC50 mean graph midpoint (converted); for IC (TGI): total cell growth inhibition (0% growth), read-out: log10 TGI mean graph midpoint (converted); for in vitro activity in words: various in vitro cell lines, IC50, average GI50, mean graph pattern
Experimental: In performing in vitro human tumor cell line assay, a total of approximately 60 human tumor cell lines derived from ten cancer types (leukemia, non-small cell lung cancer, small cell lung cancer, colon cancer, CNS cancer, melanoma, ovarian cancer, renal cancer, breast cancer and prostate cancer) were used in this assay. Compounds were tested at different concentrations against every cell line. All lines are inoculated into a series of standard 96-well microtiter plates on day 0, in the majority of cases at 20,000 cells/well, and then pre-incubated in the absence of testing agent for 24 hours. A testing agent was then added in five 10-fold dilutions and incubated for a further period of 48 hours. Following this, the cells are fixed in situ, washed, and dried. Sulforhodamine B (SRB, protein binding dye) is added, followed by further washing and drying of the stained adherent cell mass. The bound stain is solubilized and measured spectrophotometrically on an automatic plate reader.
For each compound, dose response curves for each cell line were measured with five different drug concentrations, and the concentration causing 50% cell growth inhibition (GI50), total cell growth inhibition (TGI, 0% growth), and 50% cell death (LC50, -50% growth) compared with the control was calculated. […] In these graphs, the mean logarithmic value of GI50 in all cell lines for each tested compound is used as the midpoint of that bar graph.

[4] = system: T cells (splenic T cell proliferation, co-cultured spleen cells from two strains of mice); assay: Mixed lymphocyte response (MLR); type: cell-based; settings: Mus musculus, Anti-inflammatory/Anti-proliferative Activity
Source text: i Mixed lymphocyte response (MLR).
(§1) The MLR assay measures the effects of a study compound on the activation and antigen presentation of T-lymphocytes, therefore determining immunomodulatory properties. The mouse spleen cell mitogen-induced blastogenesis and the BUD-8 human fibroblast proliferation assays measure the effects of the compounds of the present invention on cellular proliferation of cells involved in the pathogenesis of autoimmune diseases. These two assays are appropriate as screens to ascertain anti-inflammatory and/or autoimmune diseases.
The MLR is a classical assay used to measure T cell function by studying the proliferation response of T cells which are activated in vitro by genetically disparate stimulator cells. This is accomplished by co-culturing spleen cells from two different strains of mice. Splenic T cell proliferation occurs as a result of cellular activation signals generated by the ongoing cellular interactions.
(§2) The detailed experimental procedure for the above-mentioned assays is described in detail in U.S. Pat. Nos. 5,360,790 and 5,367,062 incorporated herein by reference.

[5] = system: mouse spleen cell (T-lymphocyte); assay: Concanavalin A (CON-A) assay, mouse spleen cell mitogen induced blastogenesis; type: cell-based; settings: Anti-inflammatory/Anti-proliferative Activity
Source text: iii Concanavalin A assay (the mouse spleen cell mitogen induced blastogenesis).
as §1
It is known that the induction and maintenance of most inflammatory diseases are typically due to the unrestricted activity of T-lymphocytes. Therefore, it is advantageous to identify compounds which are modulators of T-lymphocyte activity for eventual use in the regulation of inflammatory diseases, including acquired immune deficiency syndrome, psoriasis, systemic lupus, erythromatosus, and rheumatoid arthritis.
as §2

[6] = system: COLO 205 Colon Tumor Xenografts; assay: Early Stage SC COLO 205 Colon Tumor Xenografts; settings: for Drug Deaths: of 6 mice; for Opt. % T/C: >40 considered inactive
Experimental: as §3, §4, §5

BUD-8 human fibroblast = assay: BUD-8 human cell line fibroblast proliferation assay (FIB.); type: cell-based; settings: Anti-inflammatory/Anti-proliferative Activity
Source text: ii BUD-8 human cell line fibroblast proliferation assay.
as §1
The skin cell fibroblast line, BUD-8, was originally derived from the normal skin of a person and can now be obtained from the American Type Culture Collection, Rockville, Md.
as §2

[7] = 90 mg/kg/dose IP Q4D × 3, day 6
[8] = 90 mg/kg/dose IP Q4D × 3, day 6, optimum on day 16
[9] = 134 mg/kg/dose IP Q4D × 3, day 6
[10] = 200 mg/kg/dose IP Q4D × 3, day 6
[11] = 200 mg/kg/dose IP QD × 5, day 3
[12] = 50% cell growth inhibition, read-out: GI50 (average)
[13] = log10 of molar concentration, read-out: log10 I50 (log10 GI50 mean graph midpoint) (converted)
[14] = 90 mg/kg/dose IP Q4D × 3, day 7
[15] = 200 mg/kg/dose IP Q4D × 3, day 7
[16] = 130 mg/kg/dose IP QD × 5, day 3
[17] = 130 mg/kg/dose IP Q4D × 3, day 7

| Structure (SMILES) | Drug Deaths [1, 7] | Opt. % T/C [1, 8] [%] | antitumor activity (P388 Murine Leukemia) | toxicity (P388 Murine Leukemia) | maximally tolerated dose (P388 Murine Leukemia) | Drug Deaths ([2]; 90 mg/kg/dose IP QD × 5, day 3) | CC50 [3] [µM] | GI50 [3, 12] [µM] | GI50 [3, 13] [µM] | IC (TGI) [3] [µM] | in vitro activity in words [3] | IC50 [4] [µM] | IC50 [5] [µM] | Drug Deaths [6, 14] | IC50 (BUD-8 human fibroblast) [µM] | other results |
| --- | --- | --- | --- | --- | --- | --- | --- | --- | --- | --- | --- | --- | --- | --- | --- | --- |
| CCCCCCCCCCCCOC[C@@]12O[C@@H](CN3CCOCC3)[C@@H](O)[C@@H]1OC(C)(C)O2 [Ic, 2,3-O-Isopropylidene-6-deoxy-6-(1-morpholinyl)-1-O-dodecyl-α-L-xylo-2-hexulofuranose] | 0 | 39 | only slight antitumor activity | toxic at the higher dose levels | a maximally tolerated dose was not achieved | 0 | 56.2 | 31.6 | 14.5 | 29.5 | significant activity in various in vitro cell lines | < 1 | 10.3 | 0 | 14.8 | Opt. % T/C [1, 9]: Toxic; Drug Deaths [1, 9]: 6; Opt. % T/C [1, 10]: Toxic; Drug Deaths [1, 10]: 6; Drug Deaths ([2]; 134 mg/kg/dose IP QD × 5, day 3): 1; Opt. % T/C ([2]; 134 mg/kg/dose IP QD × 5, day 3, optimum on day 9): 36%; Opt. % T/C [2, 11]: Toxic; Drug Deaths [2, 11]: 6; Opt. % T/C ([2]; Ic 90 mg/kg/dose IP QD × 5, day 3, optimum on day 16): 35%; Drug Deaths ([6]; 134 mg/kg/dose IP Q4D × 3, day 7): 1; Opt. % T/C ([6]; 134 mg/kg/dose IP Q4D × 3, day 7, optimum on day 29): 40%; Opt. % T/C [6, 15]: Toxic; Drug Deaths [6, 15]: 6; Opt. % T/C ([6]; Ic 90 mg/kg/dose IP Q4D × 3, day 7, optimum on day 36): 43% |
| CCCCCCCCCCCCOC[C@@]12O[C@@H](C)[C@@H](OCCN3CCCCC3)[C@@H]1OC(C)(C)O2 [Im, 2,3-O-Isopropylidene-6-deoxy-1-O-dodecyl-4-O-ethylpiperidinyl-α-L-xylo-2-hexulofuranose] | 0 | 44 | only slight antitumor activity | toxic at the higher dose levels | a maximally tolerated dose was not achieved | 2 | 50.1 | 20.2 | 9.77 | 22.9 | significant activity in various in vitro cell lines | < 1 | 7.4 | 0 | 3.6 | Drug Deaths ([1]; 54 mg/kg/dose IP Q4D × 3, day 6): 0; Opt. % T/C ([1]; 54 mg/kg/dose IP Q4D × 3, day 6, optimum on day 9): 51%; Drug Deaths ([1]; 130 mg/kg/dose IP Q4D × 3, day 6): 1; Opt. % T/C ([1]; 130 mg/kg/dose IP Q4D × 3, day 6, optimum on day 16): 42%; Drug Deaths ([2]; 54 mg/kg/dose IP QD × 5, day 3): 1; Opt. % T/C ([2]; 54 mg/kg/dose IP QD × 5, day 3, optimum on day 16): 47%; Opt. % T/C [2, 16]: Toxic; Drug Deaths [2, 16]: 5; Opt. % T/C ([2]; Im 90 mg/kg/dose IP QD × 5, day 3, optimum on day 9): 49%; Drug Deaths ([6]; 54 mg/kg/dose IP Q4D × 3, day 7): 0; Opt. % T/C ([6]; 54 mg/kg/dose IP Q4D × 3, day 7, optimum on day 36): 44%; Opt. % T/C [6, 17]: Toxic; Drug Deaths [6, 17]: 4; Opt. % T/C ([6]; Im 90 mg/kg/dose IP Q4D × 3, day 7, optimum on day 29): 45% |
